Laboratory results taken from article PMC8942850, “Boron clusters as broadband membrane carriers” (Nature, 2022).

Experiments:
[1] = Dynamic light scattering (vesicle size, cargo-carrier aggregates); format: physicochemical
Method: DLS experiments were carried out on a Malvern Instruments DTS Nano 2000 Zeta-Sizer.
Extended Data Fig. 1 Assays testing for stability vs leakage of the vesicles. a, Response of the HPTS/DPX assay towards a membrane-disrupting agent and chemical structures of the fluorescent dye HPTS and the quencher DPX. In this assay, large unilamellar vesicles are loaded with the HPTS/DPX probe/quencher pair, such that the fluorescence of HPTS is quenched. […] The cluster B12I12^2− (red trace) was identified as lytic agent because the mere addition of the cluster led to a fluorescence increase. […] In this assay, large unilamellar vesicles are loaded with CF at high concentration, such that the fluorescence is quenched. […] The cluster B12I12^2− (red trace) was identified as lytic agent because its mere addition led to a fluorescence increase. […] In b, e and f, Triton X-100 was added at t = 600 s to induce vesicle lysis and allow data normalization. Source data

[2] = system: HeLa cells; experiment: Cytosolic TAMRA-R8 concentration (digitonin fractionation, fluorescence); format: cell-based; conditions: Extended Data Fig.5d; for concentration_uM, mean: mean of 4 experiments
Method: Cytosolic extracts were obtained according to a previously described protocol[55] by incubation with digitonin, a steroidal saponin that preferentially permeabilizes cholesterol-rich membranes, such as the plasma membrane, with minor effects on intracellular membranes. […] Cells were incubated on ice with 600 µl of 35 µg ml^−1 digitonin in PBS Ca/Mg for 10 min, the supernatant with the cytosolic fraction collected and cells washed with 200 µl of PBS Ca/Mg, combining this supernatant with the previous extract. The non-cytosolic fraction was collected by incubation of the cells with 800 µl of 1% Triton X-100 in PBS. […] For the complementary HPLC analysis, phosphate buffer was replaced by TBS (20 mM Tris–HCl, pH 7.2, 150 mM NaCl, 0.5 mM CaCl2, 0.5 mM MgCl2) and digitonin extraction was performed as indicated above. An aliquot of these extracts was used for β-hexosaminidase activity determination. Cytosolic extracts were lyophilized and resuspended in 1:10 volumes of H2O:CH3CN 1:1 with 1% TFA, and analysed by HPLC (RP-HPLC Agilent Luna 5U C18 100 Å, H2O (0.1% TFA)/CH3CN (0.1% TFA) 100:0 (0→5 min); 100:0→5:95 (5→20 min)) by monitoring the 555-nm absorbance of the TAMRA chromophore.
The quality of fractionation was assessed by lysosomal β-hexosaminidase activity, using 4-nitrophenyl 2-acetamido-2-deoxy-β-D-glucopyranoside as substrate. Briefly, 20 µl of extract was incubated with 80 µl of 7.5 mM substrate in 100 mM citrate buffer, pH 4.7, for 40 min at 37 °C, and the reaction was stopped by addition of 200 µl of 0.2 M Tris solution. Absorbance at 405 nm was measured in a plate reader. As blank, wells containing only the substrate were used. […]

[3] = system: adenocarcinoma human alveolar basal epithelial cells A549; experiment: MTT viability with B12Br12^2− or R8; parameters: dose or concentration left out as unconfirmed; conditions: 3 h in HKR + 24 h medium, mean of five measurements
Method: (§1) The incubation mixtures were replaced with DMEM + 10% FBS + 0.5 mg ml^–1 MTT. For the viability assays in the presence of B12Br12^2− or R8, HeLa, GT1-7, ARPE-19 and A549 cells were seeded the day before in 96-well plates at 6,000 cells per well. Cells were incubated with B12Br12^2− or R8 dissolved in HKR buffer for 3 h and, thereafter, incubated for 24 h with complete medium before incubating with complete medium and 0.5 mg ml^−1 MTT. For viability studies in the presence of MMAF, HeLa cells were incubated with MMAF and B12Br12^2− diluted in DMEM (without serum or antibiotics) for 3 h. Cells were washed with 0.1 mg ml^−1 heparin and further incubated for 21 h in complete medium and 2 h in complete medium containing 0.5 mg ml^−1 MTT. For all types of assays, after 2 h of incubation, the medium was carefully removed, and formazan crystals dissolved by addition of DMSO. The absorbance at 570 nm was measured with a plate reader (Tecan Infinite F200Pro) and the data normalized to the value of untreated cells (100% viability). Data were analysed with R (v. 4.0.3)[54].
(§2) Cells were incubated with 7 µM phalloidin-TRITC (red) in the absence (left) and presence of 50 µM ^AcR8 (middle) or 50 µM of B12Br12^2− cluster (right) in HKR buffer for 3 h, subsequently stained with Hoechst (blue), washed with DMEM without phenol red, and imaged by confocal fluorescence microscopy; bright-field images in insets. Micrographs from each cell line were processed independently, experiments were performed twice. e, MTT viability assay of the corresponding cell lines (HeLa, GT1-7, ARPE-19 and A549, from left to right) at different concentrations (0, 25, 75, 250, and 500 µM) of B12Br12^2− (black) or ^AcR8 (red); data are mean ± s.d. of five measurements. f, Confocal images of HeLa cells after incubation with 500 nM phalloidin-TRITC and different concentrations B12Br12^2−; the images correspond to those of Fig. 4 in the main text, but are shown with increased brightness to facilitate observation of the actin filaments. Representative images of two biological replicates. All scale bars are […], except for panel f (50 µm). Source data

[4] = system: HeLa cells; experiment: MTT viability with B12Br12^2− or R8; parameters: dose or concentration left out as unconfirmed; conditions: 3 h in HKR + 24 h medium, mean of five measurements
Method: as §1, §2

[5] = system: HeLa cells; experiment: Confocal imaging of TAMRA-R8 / TAMRA-D-R8 / TAMRA uptake in living cells
Source text: Representative images of two biological replicates. […] Scale bars, 50 μm.
Representative images of two biological replicates. […] Source data
(1 picture or pasted object on this page, not shown here)

Substance: B12Br12^2−
- DLS of combinations of cluster with the different cargos (aggregates) [1]: did not show any detectable signal of particles
- concentration_uM ([2]; 0 uM B12Br12 (no carrier), experiment 1): 286.3 nM
- concentration_uM ([2]; 0 uM B12Br12 (no carrier), experiment 2): 345 nM
- concentration_uM ([2]; 0 uM B12Br12 (no carrier), experiment 3): 274.3 nM
- concentration_uM ([2]; 0 uM B12Br12 (no carrier), experiment 4): 342.3 nM
- concentration_uM, mean ([2]; 0 uM B12Br12 (no carrier)): 312 nM
- concentration_uM ([2]; 10 uM B12Br12, experiment 1): 1393 nM
- concentration_uM ([2]; 10 uM B12Br12, experiment 2): 1647 nM
- concentration_uM ([2]; 10 uM B12Br12, experiment 3): 1247 nM
- concentration_uM ([2]; 10 uM B12Br12, experiment 4): 1117 nM
- concentration_uM, mean ([2]; 10 uM B12Br12): 1351 nM
- mean_viability ([3]; 25 as printed): 106.289%
- mean_viability ([3]; 75 as printed): 109.955%
- mean_viability ([4]; 25 as printed): 104.374%
- mean_viability ([4]; 75 as printed): 100.045%
- TAMRA-R8 fluorescence pattern in cells in presence of cluster [5]: diffuse peptide fluorescence
